{
  "source": "ChEMBL document CHEMBL1147969",
  "about": "“Synthesis of some novel heterocyclic compounds derived from diflunisal hydrazide as potential anti-infective and anti-inflammatory agents” (2007)",
  "tested_on": "Vaccinia virus",
  "assay": "Antiviral activity against Vaccinia virus-induced cytopathogenicity at 16 ug/mL",
  "format": "functional, organism-based",
  "details": "Orthopoxvirus vaccinia",
  "note": "Active and inactive are the calls of the source. No cut-off for these calls is given here.",
  "data": [
    {"compound": "Cc1ccc(-n2c(-c3cc(-c4ccc(F)cc4F)ccc3O)n[nH]c2=S)cc1", "values": [
      {"measurement": "Activity", "value": "Active"}
    ]}
  ]
}
